Measured values as given in the supplement of paper PMC10307832.

Tests used:
Test in all cases: relative viability (nuclei count vs DMSO), 5 days (fraction); higher = more cells survive
[1] = compound: C=CCc1cccc(/C=N/NC(=O)CN2CCN(Cc3ccccc3)CC2)c1O [PAC-1] + CCNC(=O)c1noc(-c2cc(C(C)C)c(O)cc2O)c1-c1ccc(CN2CCOCC2)cc1 [Luminespib] (partner 0.01 µM)
In short: (§1)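 For relative viability, nuclei counts in treated wells were divided by those in vehicle wells. Lung cancer cell lines had been pin-tool dosed in 1536-well plates the day after seeding and cultured for 5 days, then fixed and stained in one step (final 0.05% Triton X-100, 1% formaldehyde, 1 ug/ml Hoechst) and imaged at 4×. Doses were one drug alone or a fixed anchor-drug dose plus five library-drug doses (not always all listed) in √10 steps, and values are duplicate-plate medians.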

[2] = compound: C=CC(=O)Nc1cc(-n2c(=O)ccc3cnc4ccc(-c5ccc(NS(C)(=O)=O)cc5)cc4c32)ccc1C [BMX-IN-1] + CC(C)C[C@H](NC(=O)[C@H](Cc1ccccc1)NC(=O)c1cnccn1)B(O)O [Bortezomib] (partner 0.002 µM)
In short: as §1

[3] = compound: C=CC(=O)N1CCC[C@@H](n2nc(-c3ccc(Oc4ccccc4)cc3)c3c(N)ncnc32)C1 [Ibrutinib] + Nc1nc2[nH]cc(CCc3ccc(C(=O)N[C@@H](CCC(=O)O)C(=O)O)cc3)c2c(=O)[nH]1 [Pemetrexed] (partner 0.2 µM)
In short: as §1

[4] = compound: C=CC(=O)Nc1cc(-n2c(=O)ccc3cnc4ccc(-c5ccc(NS(C)(=O)=O)cc5)cc4c32)ccc1C [BMX-IN-1] + CCNC(=O)c1noc(-c2cc(C(C)C)c(O)cc2O)c1-c1ccc(CN2CCOCC2)cc1 [Luminespib] (partner 0.01 µM)
In short: as §1

Cell Line: NCI-H1650
- relative viability ([1]; first compound 0.02 µM): 0.191
- relative viability ([1]; first compound 0.06325 µM): 0.199
- relative viability ([1]; first compound 0.2 µM): 0.209
- relative viability ([1]; first compound 2 µM): 0.191
- relative viability ([2]; first compound 0.02 µM): 0.178
- relative viability ([2]; first compound 0.2 µM): 0.203
- relative viability ([2]; first compound 0.6325 µM): 0.201
- relative viability ([2]; first compound 2 µM): 0.186
- relative viability ([3]; first compound 0.005 µM): 0.347
- relative viability ([3]; first compound 0.01581 µM): 0.308
- relative viability ([3]; first compound 0.05 µM): 0.348
- relative viability ([3]; first compound 0.1581 µM): 0.42
- relative viability ([3]; first compound 0.5 µM): 0.287
- relative viability ([4]; first compound 0.02 µM): 0.205
- relative viability ([4]; first compound 0.2 µM): 0.198
- relative viability ([4]; first compound 0.6325 µM): 0.221
- relative viability ([4]; first compound 2 µM): 0.203

Cell Line: NCI-H1355
- relative viability ([1]; first compound 0.02 µM): 0.762
- relative viability ([1]; first compound 0.06325 µM): 0.668
- relative viability ([1]; first compound 0.2 µM): 0.797
- relative viability ([1]; first compound 2 µM): 0.778
- relative viability ([2]; first compound 0.02 µM): 1.26
- relative viability ([2]; first compound 0.2 µM): 1.21
- relative viability ([2]; first compound 0.6325 µM): 1.4
- relative viability ([2]; first compound 2 µM): 1.22
- relative viability ([3]; first compound 0.01581 µM): 0.944
- relative viability ([3]; first compound 0.05 µM): 0.987
- relative viability ([3]; first compound 0.1581 µM): 1.06
- relative viability ([3]; first compound 0.5 µM): 0.951
- relative viability ([4]; first compound 0.02 µM): 0.75
- relative viability ([4]; first compound 0.2 µM): 0.724
- relative viability ([4]; first compound 0.6325 µM): 0.699
- relative viability ([4]; first compound 2 µM): 0.711

Cell Line: NCI-H2085
- relative viability ([1]; first compound 0.02 µM): 0.42
- relative viability ([1]; first compound 0.06325 µM): 0.496
- relative viability ([1]; first compound 0.2 µM): 0.43
- relative viability ([1]; first compound 2 µM): 0.484
- relative viability ([2]; first compound 0.02 µM): 1.14
- relative viability ([2]; first compound 0.2 µM): 0.998
- relative viability ([2]; first compound 0.6325 µM): 1.2
- relative viability ([2]; first compound 2 µM): 1.16
- relative viability ([3]; first compound 0.005 µM): 0.878
- relative viability ([3]; first compound 0.01581 µM): 0.828
- relative viability ([3]; first compound 0.05 µM): 0.759
- relative viability ([3]; first compound 0.1581 µM): 0.621
- relative viability ([3]; first compound 0.5 µM): 0.671
- relative viability ([4]; first compound 0.02 µM): 0.404
- relative viability ([4]; first compound 0.2 µM): 0.389
- relative viability ([4]; first compound 0.6325 µM): 0.401
- relative viability ([4]; first compound 2 µM): 0.406

Cell Line: NCI-H650
- relative viability ([1]; first compound 0.02 µM): 0.701
- relative viability ([1]; first compound 0.06325 µM): 0.929
- relative viability ([1]; first compound 0.2 µM): 0.882
- relative viability ([1]; first compound 2 µM): 0.748
- relative viability ([2]; first compound 0.02 µM): 1.06
- relative viability ([2]; first compound 0.2 µM): 0.762
- relative viability ([2]; first compound 0.6325 µM): 0.783
- relative viability ([2]; first compound 2 µM): 0.749
- relative viability ([3]; first compound 0.005 µM): 1.03
- relative viability ([3]; first compound 0.01581 µM): 0.881
- relative viability ([3]; first compound 0.05 µM): 0.885
- relative viability ([3]; first compound 0.1581 µM): 1.15
- relative viability ([3]; first compound 0.5 µM): 1.1
- relative viability ([4]; first compound 0.02 µM): 0.789
- relative viability ([4]; first compound 0.2 µM): 0.831
- relative viability ([4]; first compound 0.6325 µM): 0.914
- relative viability ([4]; first compound 2 µM): 0.773

Cell Line: NCI-H460
- relative viability ([1]; first compound 0.02 µM): 0.035
- relative viability ([1]; first compound 0.06325 µM): 0.0314
- relative viability ([1]; first compound 0.2 µM): 0.0281
- relative viability ([1]; first compound 2 µM): 0.0281
- relative viability ([2]; first compound 0.02 µM): 1.94
- relative viability ([2]; first compound 0.6325 µM): 1.29
- relative viability ([2]; first compound 2 µM): 1.03
- relative viability ([3]; first compound 0.005 µM): 0.0608
- relative viability ([3]; first compound 0.01581 µM): 0.0607
- relative viability ([3]; first compound 0.05 µM): 0.0632
- relative viability ([3]; first compound 0.1581 µM): 0.0616
- relative viability ([3]; first compound 0.5 µM): 0.1
- relative viability ([4]; first compound 0.02 µM): 0.0361
- relative viability ([4]; first compound 0.2 µM): 0.0362
- relative viability ([4]; first compound 0.6325 µM): 0.0299
- relative viability ([4]; first compound 2 µM): 0.0331

Cell Line: NCI-H1666
- relative viability ([1]; first compound 0.02 µM): 0.981
- relative viability ([1]; first compound 0.06325 µM): 1.08
- relative viability ([1]; first compound 0.2 µM): 1.08
- relative viability ([1]; first compound 2 µM): 0.864
- relative viability ([2]; first compound 0.02 µM): 0.799
- relative viability ([2]; first compound 0.2 µM): 0.821
- relative viability ([2]; first compound 0.6325 µM): 0.823
- relative viability ([2]; first compound 2 µM): 0.728
- relative viability ([3]; first compound 0.005 µM): 0.716
- relative viability ([3]; first compound 0.01581 µM): 0.984
- relative viability ([3]; first compound 0.05 µM): 0.793
- relative viability ([3]; first compound 0.1581 µM): 0.859
- relative viability ([3]; first compound 0.5 µM): 0.871
- relative viability ([4]; first compound 0.02 µM): 1.05
- relative viability ([4]; first compound 0.2 µM): 1.08
- relative viability ([4]; first compound 0.6325 µM): 1.04
- relative viability ([4]; first compound 2 µM): 1

Cell Line: LK-2
- relative viability ([1]; first compound 0.02 µM): 0.176
- relative viability ([1]; first compound 0.06325 µM): 0.169
- relative viability ([1]; first compound 0.2 µM): 0.225
- relative viability ([1]; first compound 2 µM): 0.254
- relative viability ([3]; first compound 0.005 µM): 0.194
- relative viability ([3]; first compound 0.01581 µM): 0.328
- relative viability ([3]; first compound 0.05 µM): 0.263
- relative viability ([3]; first compound 0.1581 µM): 0.225
- relative viability ([3]; first compound 0.5 µM): 0.26
- relative viability ([4]; first compound 0.02 µM): 0.197
- relative viability ([4]; first compound 0.2 µM): 0.219
- relative viability ([4]; first compound 0.6325 µM): 0.176
- relative viability ([4]; first compound 2 µM): 0.207

Cell Line: NCI-H2009
- relative viability ([1]; first compound 0.02 µM): 1.01
- relative viability ([1]; first compound 0.06325 µM): 1.04
- relative viability ([1]; first compound 0.2 µM): 1.03
- relative viability ([1]; first compound 2 µM): 1.01
- relative viability ([2]; first compound 0.02 µM): 1.07
- relative viability ([2]; first compound 0.2 µM): 1.19
- relative viability ([2]; first compound 0.6325 µM): 1.16
- relative viability ([2]; first compound 2 µM): 1.01
- relative viability ([3]; first compound 0.005 µM): 1.08
- relative viability ([3]; first compound 0.01581 µM): 1.06
- relative viability ([3]; first compound 0.05 µM): 1.16
- relative viability ([3]; first compound 0.1581 µM): 1.11
- relative viability ([3]; first compound 0.5 µM): 1.22
- relative viability ([4]; first compound 0.02 µM): 1.11
- relative viability ([4]; first compound 0.2 µM): 1.09
- relative viability ([4]; first compound 0.6325 µM): 1.06
- relative viability ([4]; first compound 2 µM): 1.08

Cell Line: Calu-6
- relative viability ([2]; first compound 0.02 µM): 1.03
- relative viability ([2]; first compound 0.2 µM): 1.09
- relative viability ([2]; first compound 0.6325 µM): 1.31
- relative viability ([2]; first compound 2 µM): 1.07
